Series [1] can be described thus: Fasting plasma OA levels in the PREDIABOLE Study (GC-MS). It is filed as in vivo, human. Conditions: both study groups. From the text:
At baseline and every six months afterwards, fasting blood samples were taken and analyzed for the serum glucose, insulin and HbA1c levels, as well as the lipid profile (triglycerides, total cholesterol, HDL-c and LDL-c). At each annual visit since the recruitment, participants were submitted to an OGTT. All these analytical determinations were made in the Laboratory of Analysis and Clinical Biochemistry of the ‘Virgen del Rocio’ University Hospital of Seville. In addition, aliquots of all the blood samples were sent to Instituto de la Grasa-CSIC to determine the plasma OA content. Laboratory technicians of both institutions were also blinded to the intervention groups.
Adherence to the dietary intervention has been assessed through two indirect methods: the self-reported compliance Haynes-Sackett (Rodriguez-Chamorro M A et al. Review of therapeutic compliance measurement tests used in clinical practice. Atencion Primaria 2008, 40, 413-417) test and the delivering of the empty bottles presumably consumed. In addition, the OA plasma levels have been measured, as objective biomarker of compliance, in a random sample of the PREDIABOLE biobank (25 aliquots per study group, corresponding to 0, 12, 18 and 30 months of follow-up). […]

Series [2] can be described thus: Adverse effects in the PREDIABOLE Study (quarterly questioning and retrospective review of electronic medical records). Format: in vivo, human. Conditions: indicated daily dose (55 mL oil, 36 mg OA/day), up to 30 months, humans. From the text:
In each quarterly visit during the development of the trial, participants were questioned about the appearance of gastrointestinal disarrays or other kind of discomfort. On the other hand, a family physician not belonging to the study staff, and therefore being unaware of the allocation of the participants to the study groups, carried out a retrospective study using the electronic medical records.
They explored for each participant the period comprised between the inclusion in the trial up to two years after its completion, and focused on analytical values of serum creatinine levels (marker of renal function) and alanine and aspartate aminotransferase enzymes (as markers of hepatic alteration). Normal creatinine levels are established in 61.9 to 114.9 μM for men and 53 to 97.2 μM for women. A serum creatinine level 1.5-folds higher than the normal value (≈150 μM) was adopted as criteria of kidney function alteration.
Since micro and macrovascular disorders are frequently associated to pathological complications of insulin resistance and diabetes, the electronic medical records were also explored for cerebral (transient ischemic stroke and ictus), cardiac (ischemic heart disease, chronic ischemia and effort angina) and peripheral (peripheral arterial disease) vascular diseases. In addition, any other significant adverse event suffered by participants were also took in consideration. […]

The conditions of series [3]: previous study, Rada et al. 2015; cited from earlier work.
The conditions of series [4]: cited from earlier work.

Take `CC1(C)CC[C@]2(C(=O)O)CC[C@]3(C)C(=CC[C@@H]4[C@@]5(C)CC[C@H](O)C(C)(C)[C@@H]5CC[C@]43C)[C@@H]2C1` [OA, 3b-hydroxy-olean-12-en-28-oic acid]: in series [1] (at the onset of the study), the “fasting OA plasma concentration, average value” was “ca. 160 ng/mL”. The compound also showed a concentration at 30 months in series [1] (human, in vivo, after 30 months of follow-up) of roughly 300 ng/mL. The “safety of long-term administration” value in series [2] is “safe for humans”. The “mean residence time of OA in human blood after its ingestion” value in series [3] is 8.9 h. Further, in series [4], the “solubility in aqueous media” value is recorded as “practically insoluble” and the “solubility in lipophilic matrices” value is given as “partially soluble”.

The values are drawn from US12245623B2, “Olive oil enriched with oleanolic acid, process for its preparation and use thereof” (CONSEJO SUPERIOR DE INVESTIGACIONES CIENTÍFICAS (CSIC), priority 2018, dated 2025).
